Experiments:
Details in all cases: 48 h
SEM cells [1] = test: cell viability relative to DMSO control; higher = less cytotoxic
Method in brief: (§1)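 Leukemia cells (NOMO1 or SEM, 500 cells/well; P12-Ichikawa, 1000 cells/well) were seeded in 5 μl in 1536-well plates after at least four passages of adaptation to each medium. They received library compounds in DMSO by pin dosing, 11 threefold points from 47 μM to 0.79 nM. Luminescence with CellTiter-Glo One was read after 48 h at 37°C. Viability is stated per plate relative to DMSO wells, with cell-free wells as background.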

P12-Ichikawa [2] = test: as above
Method in brief: as §1

SEM cells [3] = test: AUC of viability dose-response curve (% viability x log10 dose units); higher = less sensitive
Method in brief: (§2)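 Leukemia cells adapted to each medium were seeded in 1536-well plates (500 or 1000 cells/well) and given library compounds in DMSO for 48 h at 37°C. The 11 threefold doses spanned 47 μM to 0.79 nM, and CellTiter-Glo One luminescence was normalised per plate to DMSO and cell-free wells before four-parameter log-logistic fitting on log10 dose. Area under the curve was integrated with the trapezoidal rule, scaling curves above full viability and removing curves that failed quality control.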

NOMO1 [4] = test: as above
Method in brief: as §2

P12-Ichikawa [5] = test: as above
Method in brief: as §2

NOMO1 [6] = test: cell viability relative to DMSO control; higher = less cytotoxic
Method in brief: as §1

CCOC(=O)[C@H](CCc1ccccc1)N[C@@H](C)C(=O)N1[C@H](C(=O)O)C[C@@H]2CCC[C@@H]21
Details	cell viability [%]
P12-Ichikawa [2], HPLM + 10% dialyzed FBS, 0.000781 µM	117
P12-Ichikawa [2], HPLM + 10% dialyzed FBS, 0.00234 µM	124
P12-Ichikawa [2], HPLM + 10% dialyzed FBS, 0.00702 µM	127
P12-Ichikawa [2], HPLM + 10% dialyzed FBS, 0.0211 µM	124
P12-Ichikawa [2], HPLM + 10% dialyzed FBS, 0.0632 µM	126
P12-Ichikawa [2], HPLM + 10% dialyzed FBS, 0.19 µM	128
P12-Ichikawa [2], HPLM + 10% dialyzed FBS, 0.569 µM	123
P12-Ichikawa [2], HPLM + 10% dialyzed FBS, 1.71 µM	126
P12-Ichikawa [2], HPLM + 10% dialyzed FBS, 5.12 µM	122
P12-Ichikawa [2], HPLM + 10% dialyzed FBS, 15.4 µM	115
P12-Ichikawa [2], HPLM + 10% dialyzed FBS, 46.1 µM	7.37
SEM cells [1], RPMI 5 mM glucose + 10% FBS, 0.000781 µM	110
SEM cells [1], RPMI 5 mM glucose + 10% FBS, 0.00234 µM	116
SEM cells [1], RPMI 5 mM glucose + 10% FBS, 0.00702 µM	117
SEM cells [1], RPMI 5 mM glucose + 10% FBS, 0.0211 µM	143
SEM cells [1], RPMI 5 mM glucose + 10% FBS, 0.0632 µM	147
SEM cells [1], RPMI 5 mM glucose + 10% FBS, 0.19 µM	127
SEM cells [1], RPMI 5 mM glucose + 10% FBS, 0.569 µM	135
SEM cells [1], RPMI 5 mM glucose + 10% FBS, 1.71 µM	113
SEM cells [1], RPMI 5 mM glucose + 10% FBS, 5.12 µM	121
SEM cells [1], RPMI 5 mM glucose + 10% FBS, 15.4 µM	89
SEM cells [1], RPMI 5 mM glucose + 10% FBS, 46.1 µM	7.67

AUC of viability dose-response curve
Details	NOMO1 [4]	P12-Ichikawa [5]	SEM cells [3]
HPLM + 10% dialyzed FBS	443	451	450
RPMI 5 mM glucose + 10% FBS	449	451	440
RPMI 5 mM glucose + 10% dialyzed FBS	444	450	451

CC1=C(CC/C(C)=C/CCC2=CCC(C3=CC(=O)OC3O)OC2O)C(C)(C)CCC1 (stereo not given)
cell viability [%], SEM cells [1]
Details	HPLM + 10% dialyzed FBS	RPMI 5 mM glucose + 10% dialyzed FBS
0.000781 µM	115	121
0.00234 µM	129	124
0.00702 µM	114	119
0.0211 µM	129	112
0.0632 µM	46.6	27.5
0.19 µM	125	132
0.569 µM	138	148
1.71 µM	127	115
5.12 µM	71.4	54
15.4 µM	107	140
46.1 µM	106	129

AUC of viability dose-response curve
Details	HPLM + 10% dialyzed FBS	RPMI 5 mM glucose + 10% FBS	RPMI 5 mM glucose + 10% dialyzed FBS
NOMO1 [4]	434	469	466
P12-Ichikawa [5]	457	434	443

Nc1cc(c(cc1S(=O)(N)=O)S(N)(=O)=O)C(/Cl)=C(/Cl)Cl
SEM cells [1], HPLM + 10% dialyzed FBS
Details	cell viability [%]
0.000781 µM	110
0.00234 µM	124
0.00702 µM	140
0.0211 µM	124
0.0632 µM	128
0.19 µM	120
0.569 µM	132
1.71 µM	126
5.12 µM	86.4
15.4 µM	10.4
46.1 µM	9.94

AUC of viability dose-response curve
Details	NOMO1 [4]	P12-Ichikawa [5]	SEM cells [3]
HPLM + 10% dialyzed FBS	344	335	396
RPMI 5 mM glucose + 10% FBS	399	396	363
RPMI 5 mM glucose + 10% dialyzed FBS	406	390	379

CC(=O)Nc1sc2c(c1-c1nc3ccccc3s1)CNC2
AUC of viability dose-response curve
Details	NOMO1 [4]	P12-Ichikawa [5]	SEM cells [3]
HPLM + 10% dialyzed FBS	386	463	437
RPMI 5 mM glucose + 10% FBS	462	452	443
RPMI 5 mM glucose + 10% dialyzed FBS	384	453	439

CC(=O)NC[C@H]1CN(c2ccc(N3CCOCC3)c(F)c2)C(=O)O1
AUC of viability dose-response curve
Details	NOMO1 [4]	P12-Ichikawa [5]	SEM cells [3]
HPLM + 10% dialyzed FBS	415	465	475
RPMI 5 mM glucose + 10% FBS	473	449	476
RPMI 5 mM glucose + 10% dialyzed FBS	450	429	475

OC(COC1=C2C(=O)\C=C(/OC2=CC=C1)C([O-])=O)COC3=C4C(=O)\C=C(/OC4=CC=C3)C([O-])=O
cell viability [%]
Details	NOMO1 [6]	P12-Ichikawa [2]	SEM cells [1]
HPLM + 10% dialyzed FBS, 0.000781 µM	95.5	84.8	65.3
HPLM + 10% dialyzed FBS, 0.00234 µM	86.8	80.9	72.3
HPLM + 10% dialyzed FBS, 0.00702 µM	93.7	87.4	76
HPLM + 10% dialyzed FBS, 0.0211 µM	94.2	79.2	73.9
HPLM + 10% dialyzed FBS, 0.0632 µM	94.8	90.7	77.7
HPLM + 10% dialyzed FBS, 0.19 µM	80.8	77.2	43.5
HPLM + 10% dialyzed FBS, 0.569 µM	96.3	88.4	80.8
HPLM + 10% dialyzed FBS, 1.71 µM	86.1	90.1	88
HPLM + 10% dialyzed FBS, 5.12 µM	86.3	92	95.9
HPLM + 10% dialyzed FBS, 15.4 µM	94.5	86.7	73.1
HPLM + 10% dialyzed FBS, 46.1 µM	93	90.4	96.8
RPMI 5 mM glucose + 10% FBS, 0.000781 µM	72.6	98.9	71
RPMI 5 mM glucose + 10% FBS, 0.00234 µM	74.5	94.9	83.6
RPMI 5 mM glucose + 10% FBS, 0.00702 µM	74.7	97	85.6
RPMI 5 mM glucose + 10% FBS, 0.0211 µM	76.4	94.2	84.3
RPMI 5 mM glucose + 10% FBS, 0.0632 µM	80.4	103	86.6
RPMI 5 mM glucose + 10% FBS, 0.19 µM	74.5	89	20.2
RPMI 5 mM glucose + 10% FBS, 0.569 µM	74.8	87.3	65.6
RPMI 5 mM glucose + 10% FBS, 1.71 µM	83.3	89.3	74.7
RPMI 5 mM glucose + 10% FBS, 5.12 µM	71	86.9	99.4
RPMI 5 mM glucose + 10% FBS, 15.4 µM	80.3	83.2	65.9
RPMI 5 mM glucose + 10% FBS, 46.1 µM	84.8	89.5	90.9
RPMI 5 mM glucose + 10% dialyzed FBS, 0.000781 µM	75.4	75.3	72.1
RPMI 5 mM glucose + 10% dialyzed FBS, 0.00234 µM	82	78.4	74.5
RPMI 5 mM glucose + 10% dialyzed FBS, 0.00702 µM	73.3	84.8	76.6
RPMI 5 mM glucose + 10% dialyzed FBS, 0.0211 µM	76.4	82.1	73.5
RPMI 5 mM glucose + 10% dialyzed FBS, 0.0632 µM	86	83.1	91.4
RPMI 5 mM glucose + 10% dialyzed FBS, 0.19 µM	72.7	76.7	64
RPMI 5 mM glucose + 10% dialyzed FBS, 0.569 µM	89.1	81.4	82.6
RPMI 5 mM glucose + 10% dialyzed FBS, 1.71 µM	88.6	87.8	95.1
RPMI 5 mM glucose + 10% dialyzed FBS, 5.12 µM	87.9	73.4	102
RPMI 5 mM glucose + 10% dialyzed FBS, 15.4 µM	86	81.3	76.9
RPMI 5 mM glucose + 10% dialyzed FBS, 46.1 µM	90.4	80.3	97.7

NOMO1 [4]
Details	AUC of viability dose-response curve
HPLM + 10% dialyzed FBS	435
RPMI 5 mM glucose + 10% FBS	368
RPMI 5 mM glucose + 10% dialyzed FBS	394

CC1COC2=C3N1\C=C(C(O)=O)/C(=O)C3=CC(=C2N4CCN(C)CC4)F (stereo not given)
cell viability [%], SEM cells [1]
Details	HPLM + 10% dialyzed FBS	RPMI 5 mM glucose + 10% FBS
0.000781 µM	119	111
0.00234 µM	128	124
0.00702 µM	122	125
0.0211 µM	122	136
0.0632 µM	121	142
0.19 µM	125	118
0.569 µM	128	117
1.71 µM	119	122
5.12 µM	118	117
15.4 µM	120	106
46.1 µM	119	115

AUC of viability dose-response curve
Details	NOMO1 [4]	P12-Ichikawa [5]	SEM cells [3]
HPLM + 10% dialyzed FBS	459	463	470
RPMI 5 mM glucose + 10% FBS	443	452	453
RPMI 5 mM glucose + 10% dialyzed FBS	446	438	463

Source: the supplement of paper PMC11451515
